Patent US9888679B2, “Protection of progenitor cells and regulation of their differentiation” (Proteobioactives Pty Ltd, priority 2007, dated 2018)

Columns and labels:
Format in all cases: cell-based
human progenitor cells = assay: Proteoglycan biosynthesis (35S-GAG) in 2 day monolayer cultures; settings: monolayers; FIG. 11
Text: FIG. 11. A bar graph of the concentration dependent effects of Pentosan Polysulfate (PPS), on the biosynthesis of Proteoglycans (PGs) as determined by the incorporation of radioactively labelled sulfate into the sulfated glycosaminoglycans (^35S-GAG) of PGs after 2 day monolayer cultures of human progenitor cells. The data was expressed as ^35S-GAG radioactivity as decays per minute (DPM) normalised to DNA content. *=p<0.05; **=p<0.005; ***=p<0.0005.
Murine Progenitor cells (cell lines C3H10T1/2 or ATDC5) purchased from RIKEN Cell Bank (Tsukuba, Japan) or human immunoselected Stro-1+ Progenitor cells (Mesoblast Ltd, Melbourne, Australia) were seeded into 50 mL plastic culture flasks containing 1:1 high glucose DMEM/Ham's F-12 medium (Invitrogen) supplemented with 10% FBS (Sigma) and incubated at 37° C., in 5% CO2. After confluence was reached, progenitor cells were released by trypsinization and harvested by centrifugation. Cells were inoculated to 96-well or 24-well plates at a density of 3×10^4 cells or 2×10^5 cells per well. […] The experiments were generally terminated after 48 hours incubation when proteoglycan biosynthesis was determined by measuring the incorporation of ^35SO4 into the glycosaminoglycans (^35S-GAGs) as described below.
The data was expressed as ^35S-GAG radioactivity as decays per minute (DPM) normalised to DNA content. *=p<0.05; **=p<0.005; ***=p<0.0005.

[1] = tested on: murine Progenitor Cells (C3H10T1/2 cells); assay: DNA synthesis (3H-Thymidine) in 2 day monolayer cultures; settings: murine progenitor cell line, FIG. 10
Text: FIG. 10. A bar graph of the concentration dependent effects of Pentosan Polysulfate (PPS) on DNA synthesis by murine Progenitor Cells (C3H10T1/2 cells) grown in monolayer cultures for 2 days as determined by the incorporation of ^3H-Thymidine into macromolecular DNA.

human progenitor cell = assay: Viability after cryopreservation and thawing, MTT assay; settings: FIG. 3
Procedure: FIG. 3. Effects of different concentrations of Pentosan Polysulfate (PPS) on progenitor cell viability following cryopreservation in liquid nitrogen and rapidly thawing as described in FIG. 1. Cell viability was determined using the mitochondrial dehydrogenase MTT assay. Data shown=Means±SD *=p<0.05 relative to control values
Murine Progenitor cells (cell lines C3H10T1/2 or ATDC5) purchased from RIKEN Cell Bank (Tsukuba, Japan) or human immunoselected Stro-1+ progenitor cells (Mesoblast Ltd, Melbourne, Australia) were seeded at a various cell densities over the range of 1.68×10^5-1.0×10^6 cells into 2 mL screw-capped centrifuge tubes containing in DMEM+10% FBS. In separate tubes a stock solution containing 2× the required concentrations of PPS dissolved in DMEM+20% FBS and 15% DMSO were prepared. These stock solutions were added to the cell cultures such that the final concentration of PPS was half that of the stock concentration and of FBS was 10% and DMSO was […]. Over several independent experiments the final concentrations of PPS in the final solutions ranged from 0.0-100 ug/ml (see figures for details). All concentrations of PPS used were examined in triplicated. Cells and the cryopreservation solutions containing the PPS were mixed gently for 5 mins and stored in liquid nitrogen. […] 90 ul×3 from each tube were transferred to a 96-well plate and the absorbance at 540 nm determined. […]

Murine ATDC5 cell line = assay: Proteoglycan biosynthesis (35S-GAG) in pellet cultures; settings: 2 micrograms/mL; 6 day pellet culture; FIG. 12
Text: FIG. 12. A bar graph of the concentration dependent effects of Pentosan Polysulfate (PPS), on the biosynthesis of Proteoglycans (PGs) as determined by the incorporation of radioactively labelled sulfate into the sulfated glycosaminoglycans (^35S-GAG) of PGs in 6 day pellet cultures of murine progenitor cells (ADTC-5). *=p<0.05 relative to control.
FIG. 22. A bar graph of the concentration dependent effects of rhNC4 (batch PBA-1202P) expressed by K. lactis, in the absence (maintenance media, MM) and presence of insulin (10 micrograms/mL) (differentiation media, DM), on the biosynthesis of Proteoglycans PGs) in pellet cultures of ATDC5 cells. Data is shown as the % change relative to controls taken to be 100%.
Murine Progenitor cells (cell lines C3H10T1/2 or ATDC5) purchased from RIKEN Cell Bank (Tsukuba, Japan) or human immunoselected Stro-1+ Progenitor cells (Mesoblast Ltd, Melbourne, Australia) were seeded in 2 ml screw-capped sterile centrifuge tubes and the total volume made-up to 1 ml with DMEM-High glucose medium containing 10% FBS. Progenitor cells were then centrifuged at 500 g for 10 min in a swing-out rotor at room temperature. The screw caps were loosened and the tubes placed in an incubator at 37° C., in a 5% CO2/95% air moist atmosphere. The pellets generally formed within 24 hours. Medium was changed daily in the first two days, then once every 2-3 days thereafter. On day 5 the medium was removed and to each tube was added 1 ml with DMEM-High glucose medium containing 10% FBS, 5.0 μCi/ml ^35S-H2SO4 and various concentrations of PPS (0, 0.1, 0.5, 1.0, 2.5, 5.0, 10.0, 20.0, μg/ml) (FIG. 12-15) or rhNC4 (0, 0.1, 0.5, 1.0, 2.0 μg/ml) (FIG. 22). Triplicate cultures were used for all concentration of drugs. The screw caps were loosened and the tubes placed in an incubator at 37° C., in a 5% CO2/95% moist air atmosphere […]. On day 6, 200 μl of stock papain solution [2.5 mg/ml papain, 7.9 mg/ml L-Cystein in papain buffer (0.1 M NaAC, 5 mM EDTA, pH6.0)] was added to each tube. The tubes were tightly capped and incubated at 65° C. for 2 hours. After papain digestion, 4 replicates of 200 μl of papain digested solution were separately transferred to a 96-well micro-titre plate (200 μl/well). The remaining solution was used for the DNA fluorometric assays which were undertaken in triplicate as described above. Biosynthesis of ^35S-GAGs was determined as described for the monolayer cultures and the results expressed as ^35-S-GAGs/μg DNA.
Data is shown as the % of controls taken to be 100%.

pentosan polysulfate [PPS]
chondrogenic effect (proteoglycan synthesis) (human progenitor cells): chondrogenic promoting effect | cell division (3H-Thymidine incorporation into DNA) [1]: Marked stimulation of cell division | cell viability after cryopreservation and thawing (MTT) (human progenitor cell; 168,000 cells, particularly at 1 and 2.5 μg/ml PPS): improved the viability of the cells | cell viability after cryopreservation and thawing (MTT) (human progenitor cell; 350,000 cells): not adversely affected | increase of proteoglycan (PG) synthesis relative to control culture (Murine ATDC5 cell line): 25%
